How the values were obtained:
[1] = tested on: salmonella typhimurium; assay: bacterial reverse mutation test (Ames test); type: cell-based
[2] = tested on: rats; assay: acute oral toxicity; details: rat, in vivo
Method: (§1) Meanwhile, the toxicity test of the compound of the present invention was performed using […]. The compound was suspended in propylene glycol. The resulting suspension was medicated respectively on 5 female rats and 5 male rats(SD) of which age are 5 weeks, via oral after 12 hour starvation. The general symtoms, weight change and lethal case of the above rats were investigated. In cases of tests of the compound Nos. 25, 62, 63 and 85 (delivery of 2,000 mg/kg), the general symtom and weight change were normal and the lethal case was not observed. […] The toxicity data on the compound Nos. 25, 62, 63 and 85 are described in the following Table 5. In light forgoings, the compounds of the present invention are safe in toxicity and have the excellent lethal effect and growth-inhibition effect against fungus.

[3] = acute oral toxicity; details: rat, in vivo, po, rats
Method: as §1

[4] = tested on: male ICR mice; details: mouse, in vivo
[5] = tested on: cultured lung cells derived from chinese hamster; type: cell-based

COc1ccc2c(Cc3cccc(C(F)(F)F)c3)c3[n+](cc2c1OC)CCc1cc2c(cc1-3)OCO2 [compound 25, 13-(3-trifluoromethylbenzyl)berberine chloride]
AMES test [1]: negative | lethal case [2]: not observed | LD50 ([3]; female): > 2500 mg/kg | LD50 ([3]; male): > 3000 mg/kg | nucleus test (micronucleous test) [4]: negative | chromosome abnormality test [5]: negative
